Article PMC7570852, “Ruthenium(II)/(III) DMSO-Based Complexes of 2-Aminophenyl Benzimidazole with In Vitro and In Vivo Anticancer Activity” (Molecules, 2020)

Tests used:
[1] = test system: MCF7 cells; assay: Cell-cycle analysis by flow cytometry (PI), MCF7; assay type: cell-based, human; details: MCF7, 117.6 μg/mL, 24 h
Experimental: The Ru(III) complex (2) (117.6 μg/mL) was added to MCF7 and Caco2 cells at a confluence of 70–80% and incubated for 24 h (in a CO2 incubator). The cells were then digested with warm trypsin-EDTA + warm PBS-EDTA (0.25%) (500 + 500 μL) with incubation for 10 min at 37 °C. The mixture was centrifuged (450 rpm) for 5 min, then the supernatant was removed. The mixture was washed twice in warm PBS and the cell pellet was re-suspended in 500 µl warm PBS, centrifuged and the supernatant decanted. A volume of 150 μL PBS + 350 μL ice-cold 70% ethanol was added and incubated at 4 °C for 1 h to fix the cells. To remove ethanol, the mixture was centrifuged at 350 rpm for 10 min and then the supernatant was removed. The mixture was washed twice in warm PBS and the cells were re-suspended in 500 μL of warm PBS, centrifuged, and the supernatant was removed. The cells were resuspended in 100 μL PBS and stored at 4 °C for up to four days. In darkness, the cells were stained with 100 µL of propidium iodide (PI) solution + 50 µL RNase A solution (100 µg/mL) and incubated in darkness for 30–60 min. The stained cells were read in an Attune flow cytometer (Applied Bio-system, Foster City, CA, USA).

[2] = Cyclic voltammetry; assay type: physicochemical; details: 10^−3 M in CH2Cl2/DMSO, 0.1 M (Bu4N)PF6, scan rate 50 mVs^−1
Experimental: Elemental analyses (C, H, N) were performed by the Microanalysis unit in the Department of Chemistry at Simon Fraser University. Infrared spectra (FTIR) were performed on a JASCO 4100 FTIR spectrophotometer in the 4000–400 cm^−1 range using a KBr disc. NMR (^1H and ^13C) spectra were recorded in DMSO-d6 solvent using a Bruker 400 MHz instrument. The 2D NMR analysis (^1H–^1H COSY) was performed on a Jeol 500 MHz NMR, at Mansoura University. ESI/APCI HRMS data were acquired on a Thermo Scientific Exactive Plus Orbitrap mass spectrometer. Electronic spectra (in DMSO, 200–900 nm) were measured on a JASCO 630 V spectrophotometer. Emission spectra of the complexes were measured on a Jenway model 6285 spectrofluorimeter for excitation and emission spectra, 200–700 nm. The magnetic susceptibility of the complexes was measured on a Johnson Matthey magnetic susceptibility balance. […] A microplate reader (StatFax-2100, Awareness Technology, Inc., Palm City, FA, USA), Attune flow cytometer (Applied Biosystems, Foster City, CA, USA), Quawell nanodrop Q5000 (San Jose, CA, USA), StepOnePlus real time PCR system (Applied Biosystems, Foster City, CA, USA), and CO2 incubator (NuAire In-Vitro Cell, Plymouth, MN, USA) were used in biological studies.

[3] = test system: Bcl2 gene expression; assay: Real-time qPCR of liver tissue, Bcl2; assay type: in vivo; details: liver tissue of EAC-bearing mice, vs untreated
Experimental: RNA was isolated from liver tissues using a RNeasy Mini kit. The integrity and purity of RNA were assessed by 1% agarose gel electrophoresis and nanodrop, respectively. The obtained RNA was reverse transcribed to yield cDNA using Quantiscript reverse transcriptase. Specific primers for Bax, caspase 3, and Bcl2 genes in addition to the housekeeping gene, β actin were designed by the Primer 3 web-based tool based on the published mice sequences (Table 5). Quantitative real-time PCR (qPCR) was performed using QuantiTect SYBR Green qPCR Master Mix in a StepOnePlus real-time PCR system and the melting curve condition and fold change calculation were done as previously described.

[4] = test system: CT DNA (EB-DNA adduct); assay: Ethidium bromide (EB-DNA) competitive fluorescence assay; assay type: binding, calf; details: [DNA] = [EB] = 5 μM
Experimental: The binding affinity of the metal complexes towards CT DNA was evaluated using competitive fluorescence studies. CT DNA pretreated with ethidium bromide (EB) ([DNA] = [EB] = 5 μM) in Tris-HCl/NaCl buffer (pH = 7.2) was incubated with the complexes in concentrations of 0–90 μM. […] The quenching of EB-DNA adduct fluorescence was followed by monitoring the emission spectra in the wavelength range of 530–650 nm. Upon addition of the metal complexes to the EB-DNA adduct, the quenching binding constant (Kq) at λ = 585 nm is determined from the Stern-Volmer Equation (2):I0/I = 1 + Kq[Q](2) where I0 and I are the fluorescence intensities of EB-DNA in the […] of the metal complexes, respectively, [Q] is the concentration of the tested compounds, and Kq is the quenching constant calculated from the slope of the straight line obtained from plotting Io/I vs. [Q]. In addition, the apparent binding constant can be calculated from Equation (3):KEB[EB] = Kapp[Q](3) where KEB = 1 × 10^7 M^−1 [EB] is the ethidium bromide concentration (5 μM) and [Q] is the concentration of the quencher that provides a 50% intensity reduction of the initial EB-DNA adduct.

[5] = test system: Ehrlich ascites carcinoma (EAC); assay: EAC mouse model: abdominal size and peritoneal angiogenesis; assay type: in vivo, mice; details: for mean abdominal circumference: EAC mice
Experimental: The mice were divided into the following eight groups (10 mice in each group): • Control group: Mice were intraperitoneally injected with a vehicle (2% DMSO + sterile saline) for 12 days. • I, II, and III control groups: Healthy normal mice were intraperitoneally injected with 6, 12, and 18 mg/kg of complex (2), respectively, for 12 days. • EAC group: Mice were intraperitoneally injected by a single dose of 2.5 × 10^6 viable Ehrlich ascites carcinoma (EAC) cells in PBS. In brief, EAC cells were withdrawn from the EAC mouse’s intraperitoneal cavity, washed, and centrifuged three times with sterile saline. Then, the pellets were suspended in sterile PBS and counted by the trypan blue exclusion assay, which confirmed that the viability of the cells was 98%. • I, II, and III treated groups: Firstly, 30 healthy mice were intraperitoneally injected with a single dose of 2.5 × 10^6 viable EAC cells. After one day; the mice were divided into I, II, and III treated groups (10 mice each group), intraperitoneally injected with 6, 12, and 18 mg/kg Ru(III) complex, respectively, for 12 days.
The animals were monitored for EAC growth by measuring abdominal size. At the end of the experiment all animals were fasted overnight then sacrificed. Serum samples were collected to study the biological parameters such as liver and kidney function as well as antioxidant enzyme activity. Liver samples from each group were frozen immediately in liquid nitrogen for molecular analysis.

## CS(C)=O.Nc1ccccc1-c1nc2ccccc2[nH]1.O.[Cl][Ru]([Cl])[Cl] [(2), [Ru(III)Cl3(DMSO)(Hapbim)]·H2O]
[1]
  cells in G0/G1 phase: 24%
  cells in G2/M phase: 55%
  cells in S phase: 21%
[2]
  E1/2 (Ru(II)/Ru(III) redox couple): −295 mV
[3]
  Bcl2 gene expression: significant dose-dependent reduction
[4]; KEB = 1 × 10^7 M^−1
  Kapp (apparent binding constant): 1.72 ± 0.28 × 10^7 M^−1
[4]; Stern-Volmer, 585 nm
  Kq (quenching constant): 8.64 ± 0.15 × 10^3 M^−1
[5]; EAC mice, 6, 12, 18 mg/kg treated groups vs EAC group
  peritoneal angiogenesis: decreased in a dose-dependent manner
[5]; I (6 mg/kg) i.p. for 12 days, untreated EAC 13.20 ± 0.03, control 7.06 ± 0.18
  mean abdominal circumference: 9.6 ± 0.2 cm
[5]; II (12 mg/kg) i.p. for 12 days
  mean abdominal circumference: 7.30 ± 0.03 cm
[5]; III (18 mg/kg) i.p. for 12 days
  mean abdominal circumference: 7.10 ± 0.03 cm
